Experimental data published in patent US10077289B2, “Cyclosporins modified on the MeBmt sidechain by heterocyclic rings” (priority 2015, dated 2018).
≈ marks a conversion by molar mass, not a printed value. Read-outs that look alike come from different tables or passages of the source.

Experiments:
[1] = target: Human recombinant cyclophilin A (Cyp A) (Homo sapiens (Human), UniProt P62937); test: Protease-free PPIase assay
Protocol: Protease-Free PPIase Assay
The protease-free PPIase assay measures the rate of cis to trans conversion of a peptide substrate catalyzed by the enzyme cyclophilin A. Addition of a cyclophilin A inhibitor (e.g., a test compound) slows the catalyzed rate and a Ki value is obtained.
35 mM HEPES pH 7.8, filtered through a 0.2 μm filter. 50 μM DTT was added prior to use each day and then the buffer was stored on ice.
Human recombinant cyclophilin A (Cyp A) (Sigma C3805) enzyme was diluted to 1 μM with enzyme dilution buffer (20 mM HEPES pH 7.8, 40% glycerol, 50 μM DTT and 1 μM BSA) and stored at −20° C.
Succinimide-Ala-Ala-Pro-Phe-p-nitroanilide (SUC-AAPF-pNA) (from Bachem AG, L-1400), 20 mg/ml prepared in 0.5 M LiCl in trifluoroethanol.
The temperature is monitored by the use of a temperature probe. To prevent UV degradation of test compounds, the light below 290 nm was blocked using a glass slide in the light path. 1.5 ml of the assay buffer was put into a 3 ml quartz cuvette and cooled to 10.0±0.1° C. while stirring (vigorous but not so fast as to produce cavitation). The inhibitor was diluted in 100% DMSO, and then added to the assay to a maximum final concentration of 0.5% DMSO in the assay. A blank spectrum was obtained, then 3 μL of enzyme was added (2 nM final concentration) and then 3 μL substrate (60 μM final concentration) added. The absorbance was measured at 330 nm for 300 s or 500 s for blank runs (NOTE: the substrate must be added in one quick injection and the measurements started immediately to minimize mixing errors).
A first order rate equation was fitted to the absorbance data, for each concentration of inhibitor, to obtain the rate constant (the first 10 to 15 seconds were excluded as mixing causes errors in this portion of curve). The catalytic rate was calculated from the enzymatic rate constant minus the background rate constant. An exponential curve was generated using the catalytic rate constants versus the inhibitor concentration to obtain the Ki value for the inhibitor. The Ki value is indicative of the binding affinity between the test compound and cyclophilin A.

[2] = target: calcineurin/cyclophilin A (Homo sapiens (Human), UniProt P62937+P63098+Q08209); test: Calcineurin Phosphatase (CaN) Assay (+CypA); assay type: biochemical; settings: in the presence of Cyp A, 1:1 complex with inhibitor; read-out: Calcineurin Phosphatase (CaN) Assay (+CypA) IC50
Description: Calcineurin Phosphatase (CaN) Assay
The calcineurin phosphatase assay is a means for estimating the immunosuppressive potential of a test compound. Calcineurin is a serine-threonine protein phosphatase that on activation dephosphorylates members of the nuclear factor of activated T cells (NFAT), which are important in T lymphocyte activation.
To investigate the immunosuppressive potential of exemplary compounds of Formula I, which are cyclosporin analogs, their ability to inhibit calcineurin activity was measured in the presence and absence of Cyp A.
The CaN assay kit used is based on a colorimetric assay for measuring calcineurin phosphatase activity, and it is commercially available (Enzo Life Sciences and Calbiochem). Calmodulin is also required for calcineurin activity and RII phosphopeptide is used as an efficient peptide substrate for calcineurin. […] The detection of free phosphate released is based on the classic Malachite green assay.
Enzo Life Sciences CaN Assay Kit: BML-AK804
Malachite Green: BIOMOL Green™ reagent
Calmodulin (Human, recombinant): was thawed on ice, diluted 1:50 with 2× assay buffer, and then stored on ice.
Calcineurin: was thawed quickly, stored on ice immediately, diluted 1:12.5 with 1× assay buffer, and then stored on ice.
R-II Substrate: 915 μL ultrapure water (UPW) was added to the 1.5 mg vial substrate to give a final concentration of 0.75 mM.
Inhibitors: 2.5 mM inhibitor in 100% DMSO.
Cyp A: recombinant human CypA (Sigma C3805), 1 mg/ml; Recombinant 6-His tagged CypA prepared by the University of Edinburgh was also used.
Inhibitor dilutions: inhibitor compounds were diluted in UPW in polypropylene low-binding 96 well plates at 5× the final assay concentration.
Assay Setup: using the half area 96 well plates supplied with the kit, 10 μl UPW was added to duplicate wells to provide the non-inhibited control. 10 μl of the inhibitor or the inhibitor/Cyp A complex was added to the appropriate sample wells. 25 μl of the 2× assay buffer with CaM was added to all wells, then 5 μl of CaN was added to all wells (40 U per well final concentration) except duplicate ‘no calcineurin blank’ wells to which 5 μL 1× assay buffer was added. The assay plate was placed in an oven at 30° C. for 15 minutes to equilibrate to the reaction temperature. The reaction was started by the addition of 10 μl RII-peptide (0.15 mM final concentration). The reaction was allowed to proceed at 30° C. for a time period in which the reaction is linear for about 60 minutes. The reaction was then terminated by adding 100 μl of the Malachite Green reagent. The color was allowed to develop for 15-30 minutes at room temperature before the absorbance at 620 nm was measured using a plate reader (Molecular Devices—SpectraMax M5). The data were analyzed by subtracting ‘no Calcineurin blank’ from all the absorbance readings and plotting the background corrected absorbances against Log10 inhibitor concentration. A sigmoidal-dose response curve was fitted to the data using GraphPad Prism Software.
It exerts its immunosuppressive activity by binding to cyclophilin A to form a complex, which then binds to calcineurin and thereby inhibits calcineurin activity.

[3] = Water Solubility Assay (measured in pH 7.8 buffer); assay type: physicochemical; settings: 25 °C, kinetic from dmso stock
Protocol: Water Solubility Assay (Measured in pH 7.8 Buffer)
The aqueous solubility of a compound of Formula I in buffer (pH 7.8) was measured by recording the onset of precipitation of the compound as a function of increasing concentration. The onset of precipitation, if it occurred, was detected by an increase in absorbance at 650 nm.
Assay Buffer: 35 mM HEPES pH 7.8
Stock solutions of Control and Test Compounds: 10 mM in 100% DMSO.
10 mM stock solutions of control and test compounds were prepared in 100% DMSO.
Assay buffer (247.5 μl) was placed into flat bottomed transparent 96-well plate. For blank samples DMSO (2.5 μl) was added. For test and control samples 2.5 μl of the appropriate DMSO dilution stocks were added to the appropriate well. All test and control compounds were performed in triplicate.
The plates were sealed with adhesive plate seal and shaken at 250 rpm at 25° C. for 18 h on a plate shaker. After incubation the plate seals were taken off and any bubbles observed in wells removed. The plates were read on a SpectraMaxM5 with a 5 s pre-shake at 650 nm. Data files were transferred to the appropriate worksheet and the solubility range of the compounds was calculated from the data. The values shown in the Tables indicate the concentration in μM (micromolar) at which the compound remains in solution.

[4] = read-out: Protease-free PPIase Assay Ki, human recombinant Cyp A, 10 °C
[5] = 35 mM HEPES buffer pH 7.8, aqueous buffer, 35 mM HEPES pH 7.8, 1% DMSO, 18 h, read-out: Water Solubility Assay, concentration at which the compound remains in solution

Row | Ki [1] [nM] | IC50 [2] [nM] | solubility at 18 h ([3]; pH 7.8, aqueous buffer) [µM] | SMILES | Ki [1, 4] [nM] | solubility at 18 h [3, 5] [µM]
1 | 3.8 | 1400 | 50 to 75 (≈ 64.1 to 96.1 µg/mL) | CC[C@H]1NC(=O)[C@@H]([C@H](O)[C@H](C)CCCc2ccccn2)N(C)C(=O)[C@@H](C(C)C)N(C)C(=O)[C@@H](CC(C)C)N(C)C(=O)[C@@H](CC(C)C)N(C)C(=O)[C@H](C)NC(=O)[C@@H](C)NC(=O)[C@@H](CC(C)C)N(C)C(=O)[C@@H](C(C)C)NC(=O)[C@H](CC(C)C)N(C)C(=O)[C@@H](C)N(C)C1=O [Compound 12, [(2S,3R,4R)-3-Hydroxy-4-methyl-2-(methylamino)-7-(pyridin-2-yl)-heptanoic acid]^1 [(R)-methyl-Sar]^3 cyclosporin A] | – | –
2 | 3.9 | > 10000 | 50 to 75 (≈ 64.8 to 97.2 µg/mL) | CC[C@H]1NC(=O)[C@@H]([C@H](O)[C@H](C)CCCCc2ccccn2)N(C)C(=O)[C@@H](C(C)C)N(C)C(=O)[C@@H](CC(C)C)N(C)C(=O)[C@@H](CC(C)C)N(C)C(=O)[C@H](C)NC(=O)[C@@H](C)NC(=O)[C@@H](CC(C)C)N(C)C(=O)[C@@H](C(C)C)NC(=O)[C@H](CC(C)C)N(C)C(=O)[C@@H](C)N(C)C1=O [Compound 28, [(2S,3R,4R)-3-Hydroxy-4-methyl-2-(methylamino)-8-(pyridin-2-yl)-octanoic acid]^1 [(R)-methyl-Sar]^3 cyclosporin A] | – | –
3 | – | 2650 | 50 to 75 (≈ 63.4 to 95.1 µg/mL) | CC[C@H]1NC(=O)[C@@H]([C@H](O)[C@H](C)CCCc2ccccn2)N(C)C(=O)[C@@H](C(C)C)N(C)C(=O)[C@@H](CC(C)C)N(C)C(=O)[C@@H](CC(C)C)N(C)C(=O)[C@H](C)NC(=O)[C@@H](C)NC(=O)[C@@H](CC(C)C)N(C)C(=O)[C@@H](C(C)C)NC(=O)[C@H](CC(C)C)N(C)C(=O)CN(C)C1=O [Compound 29, [(2S,3R,4R)-3-Hydroxy-4-methyl-2-(methylamino)-7-(pyridine-2-yl)-heptanoic acid]^1 cyclosporin A] | 11 | –
4 | 3.2 | > 10000 | > 100 | CC[C@H]1NC(=O)[C@@H]([C@H](O)[C@H](C)CCCc2cccnn2)N(C)C(=O)[C@@H](C(C)C)N(C)C(=O)[C@@H](CC(C)C)N(C)C(=O)[C@@H](CC(C)C)N(C)C(=O)[C@H](C)NC(=O)[C@@H](C)NC(=O)[C@@H](CC(C)C)N(C)C(=O)[C@@H](C(C)C)NC(=O)[C@H](CC(C)C)N(C)C(=O)[C@@H](C)N(C)C1=O [Compound 21, [(2S,3R,4R)-3-Hydroxy-4-methyl-2-(methylamino)-7-(pyridazin-3-yl)-heptanoic acid]^1 [(R)-methyl-Sar]^3 cyclosporin A] | – | –
5 | 2.5 | 1600 | 50 to 75 (≈ 64.1 to 96.1 µg/mL) | CC[C@H]1NC(=O)[C@@H]([C@H](O)[C@H](C)CCCc2ccncc2)N(C)C(=O)[C@@H](C(C)C)N(C)C(=O)[C@@H](CC(C)C)N(C)C(=O)[C@@H](CC(C)C)N(C)C(=O)[C@H](C)NC(=O)[C@@H](C)NC(=O)[C@@H](CC(C)C)N(C)C(=O)[C@@H](C(C)C)NC(=O)[C@H](CC(C)C)N(C)C(=O)[C@@H](C)N(C)C1=O [Compound 15, [(2S,3R,4R)-3-Hydroxy-4-methyl-2-(methylamino)-7-(pyridin-4-yl)-heptanoic acid]^1 [(R)-methyl-Sar]^3 cyclosporin A] | – | –
6 | 2.2 | 5800 | 50 to 75 (≈ 64.1 to 96.2 µg/mL) | CC[C@H]1NC(=O)[C@@H]([C@H](O)[C@H](C)CCCc2cnccn2)N(C)C(=O)[C@@H](C(C)C)N(C)C(=O)[C@@H](CC(C)C)N(C)C(=O)[C@@H](CC(C)C)N(C)C(=O)[C@H](C)NC(=O)[C@@H](C)NC(=O)[C@@H](CC(C)C)N(C)C(=O)[C@@H](C(C)C)NC(=O)[C@H](CC(C)C)N(C)C(=O)[C@@H](C)N(C)C1=O [Compound 18, [(2S,3R,4R)-3-Hydroxy-4-methyl-2-(methylamino)-7-(pyrazin-2-yl)-heptanoic acid]^1 [(R)-methyl-Sar]^3 cyclosporin A] | – | –

Row | SMILES | Ki [1] [nM] | IC50 [2] [nM] | solubility at 18 h ([3]; pH 7.8, aqueous buffer) [µM] | Ki [1, 4] [nM] | solubility at 18 h [3, 5] [µM]
7 | CC[C@H]1NC(=O)[C@@H]([C@H](O)[C@H](C)CCCc2ccc(OC)cn2)N(C)C(=O)[C@@H](C(C)C)N(C)C(=O)[C@@H](CC(C)C)N(C)C(=O)[C@@H](CC(C)C)N(C)C(=O)[C@H](C)NC(=O)[C@@H](C)NC(=O)[C@@H](CC(C)C)N(C)C(=O)[C@@H](C(C)C)NC(=O)[C@H](CC(C)C)N(C)C(=O)[C@@H](C)N(C)C1=O [Compound 16, [(2S,3R,4R)-3-Hydroxy-4-methyl-2-(methylamino)-7-(5-methoxy-pyridin-2-yl)-heptanoic acid]^1 [(R)-methyl-Sar]^3 cyclosporin A] | – | > 10000 | – | 0.72 | 25 to 50 (≈ 32.8 to 65.6 µg/mL)
8 | CC[C@H]1NC(=O)[C@@H]([C@H](O)[C@H](C)Cc2nccn2CCN(C)C)N(C)C(=O)[C@@H](C(C)C)N(C)C(=O)[C@@H](CC(C)C)N(C)C(=O)[C@@H](CC(C)C)N(C)C(=O)[C@H](C)NC(=O)[C@@H](C)NC(=O)[C@@H](CC(C)C)N(C)C(=O)[C@@H](C(C)C)NC(=O)[C@H](CC(C)C)N(C)C(=O)[C@@H](C)N(C)C1=O [Compound 4, [(2S,3R,4R)-5-(1-(N,N-Dimethyl-ethyl)-1H-imidazol-2-yl)-3-hydroxy-4-methyl-2-(methylamino)pentanoic acid]^1 [(R)-methyl-Sar]^3 cyclosporin A] | – | 6900 | – | 5.1 | > 100
